Reference: paper PMC9198545, “Pharmacokinetics and Pharmacodynamics of Fungal Defensin NZX Against Staphylococcus aureus-Induced Mouse Peritonitis Model” (Frontiers in Microbiology, 2022)
Converted amounts (≈) assume the structure as drawn. Read-outs that look alike come from different tables or passages of the source.

Assays:
[1] = system: S. aureus E48; format: in vivo, mouse; conditions: for extension of survival time: 20 mg/kg intravenous single injection; for survival rate of the mice: 7 days, n = 6
Protocol: Each mouse was received a peritonitis by intraperitoneal injection of S. aureus E48 suspended in a PBS buffer (2 × 10^8 CFU/ml, 0.5 ml). […] After therapy, the survival conditions of the mice were recorded within 7 days.

[2] = system: S. aureus E48; assay: microbe, parasite or virus in culture; conditions: for MIC: Staphylococcus aureus, E48, read-out: MIC after 30-day serial passage
Protocol: The development of drug resistance of S. aureus E48 induced by NZX and antibiotics was conducted as described previously (Li et al., [2017]). The MICs of antibacterial agents were measured according to the MICs testing method as described above. […] Then, the MIC values of the next passage were conducted again, and the experimental procedures were repeated for 30 days. The development of drug resistance was determined by the fold changes in MICs.

[3] = system: S. aureus MRSA ATCC 43300; assay: microbe, parasite or virus in culture
Protocol: (§1) The MICs of NZX and other antibacterial agents against S. aureus strains were conducted according to the Clinical Laboratory Standards Institute (Watts et al., [2013]). […] The wells containing antibiotics were set as positive controls. Negative control wells contained a PBS buffer and bacterial suspension without antibacterial agents. The MIC value was defined as the lowest concentration of antibacterial agents at which no visible bacteria were observed. All MIC assays were performed independently in triplicate.

[4] = system: S. aureus MSSA ATCC 25923; assay: microbe, parasite or virus in culture; conditions: Staphylococcus aureus, ATCC25923|MSSA
Protocol: as §1

[5] = system: S. aureus E48; assay: microbe, parasite or virus in culture
Protocol: as §1

[6] = system: S. aureus E48; assay: MIC after cathepsin B treatment or in MHB at pH 5.0; format: cell-based, Staphylococcus aureus; conditions: for MIC at pH 5.0 compared to pH 7.4 (increase): MHB adjusted to pH 5.0, lysosomal acid environment; for change of MIC in phagolysosomal proteinase environment: cathepsin B 16 μg/ml, pH 5.0 buffer, 37°C, 1 h
Protocol: To test the effect of phagolysosomal enzyme-cathepsin B (from bovine spleen, Sigma C7800) on the antibacterial activities of peptides, NZX was diluted to 640 μg/ml in a cathepsin buffer (5-mM L-cysteine, 20-mM sodium acetate, 1-mM EDTA, pH of 5.0) and incubated with 16 μg/ml enzyme solution at 37°C for 1 h. The MIC value of NZX against S. aureus E48 was examined. NZX without enzyme solution was set as the negative control. Additionally, to mimic the intracellular condition, the MHB medium was adjusted to a specific pH value of 5.0 to determine the MIC value of NZX against S. aureus E48 in the acidic environment (Wang et al., [2019]). In all experiments, clindamycin, linezolid, daptomycin, and ampicillin acted as antibiotic control.

[7] = system: S. aureus E48; assay: Survival rate and time-killing kinetic curves; format: cell-based, Staphylococcus aureus; conditions: for Survival rate of S. aureus E48: 1/2 × to 2 × MIC for 2 h, 1 × 10^5 CFU/ml, mean n = 3; for time to complete killing of S. aureus E48: 2 × MIC
Protocol: Survival rate and time-killing kinetic curves experiments were conducted as described previously (Li et al., [2020b]). […] After incubation at various times (0, 15, 30, 60, 90, and 120 min), a volume of 100 μl of bacterial suspension was taken out from a flask and diluted to count. All assays were conducted independently in triplicate.

[8] = system: intracellular S. aureus E48 in RAW 264.7; assay: Intracellular antibacterial activity in RAW 264.7 cells; format: cell-based, Staphylococcus aureus; conditions: 1, 4, 16, 64 and 128 μg/ml, 24 h
Protocol: The antibacterial effects of NZX against intracellular S. aureus E48 in RAW 264.7 were determined according to a previous study (Wang et al., [2018]). The antibacterial concentrations of NZX against S. aureus E48 were set as 1, 4, 16, 64, and 128 μg/ml. Daptomycin was selected as a control because it is a polypeptide drug similar to NZX. In addition, the internalization and distribution assays of NZX in RAW 264.7 were conducted according to Wang et al. ([2019]). Briefly, RAW 264.7 cells were grown on culture dishes at 37°C for 24 h. FITC or FITC-NZX (1, 16, and 64 μg/ml) was added and incubated in the culture dishes for 24 h. The cells were washed two times with PBS and quenched by 0.04% trypan blue. Samples were analyzed by flow cytometry to determine the uptake of NZX. In distribution analysis, FITC or FITC-NZX at 64 μg/ml was added and incubated in the culture dishes for 24 h. The cells were washed two times with PBS, stained with 5 μg/ml wheat germ agglutinin (WGA)-conjugated Alexa Fluor 555 (ThermoFisher Scientific, USA) and Hoechst 33342 (ThermoFisher Scientific, USA) for 10 min, and observed by confocal microscopy (Leica TCS SP 5, Germany).

[9] = system: S. aureus E48; assay: MIC in physiological salt and serum media; format: cell-based, Staphylococcus aureus; conditions: MHB adjusted to 1.25 mM CaCl2
Protocol: The physiological salt and serum stability of NZX were performed according to the previous report (Hirsch et al., [2019]).

[10] = system: S. aureus E48; assay: Bacterial burden in organs and peritoneal fluid, mouse peritonitis model; format: in vivo; conditions: 20 mg/kg, 24 h
Protocol: In this study, untreated mice that received a lethal dose of S. aureus (2 × 10^8 CFU/ml, 0.5 ml) began to die at 6 to 8 h, and all died before 24 h, which made it difficult for us to obtain the samples when the therapy effects after 24 h administration were analyzed. Therefore, the mice that received half lethal doses of S. aureus E48 (1 × 10^8 CFU/ml, 0.5 ml) were conducted in the following pharmacodynamics analysis. After 24 h therapy with NZX (5, 10, and 20 mg/kg) or daptomycin (20 mg/kg), organ tissues, including livers, lungs, spleens, hearts, and kidneys, were collected, homogenated, and plated to count bacterial burden. In addition, the total number of bacteria and intracellular bacteria counts in peritoneal fluids were determined as described by Wang et al. ([2018]). Briefly, the total bacterial CFU in the peritoneal fluid were quantified before any further procedures. In addition, the collected peritoneal fluid was centrifuged and washed to obtain peritoneal macrophage, and then extracellular bacteria were killed after treatment with 50 μg/ml lysostaphin at 37°C for 30 min. The cells were washed two times by PBS and suspended with 1 ml of cold sterile water for lysis, and the lysate was used to determine the intracellular bacterial burden.

[11] = system: S. aureus E48; conditions: ref Yang et al., 2019, cited from earlier work
Source text: NZX, a variant of plectasin, has garnered interest as an ideal therapeutic drug against S. aureus because of its ability to kill intracellular bacteria and good biocompatibility (Tenland et al., [2018]; Liu et al., [2020]). […] T ...

[12] = design: method as in Andes et al., 2009; Brinch et al., 2009; conditions: in human and mice serum, ref Andes et al., 2009, Brinch et al.; cited from earlier work
[13] = ref Liu et al., 2020; cited from earlier work
Source text: However, plectasin had some limitations before clinical application, such as cytotoxicity and trypsin instability (Yang et al., [2019]). NZX (MW 4383.89 Da), a variant of plectasin with three mutation sites (D9S, M13I, and K32R), had the increased net charge (from +1 to +2) and hydrophobicity (from −0.695 to ...

[14] = 20 mg/kg intravenous single injection 2 h post-infection, 2 × 10^8 CFU/ml, 0.5 ml i.p.
[15] = 20 mg/kg intravenous two times (2 h and 8 h after infection)
[16] = 1 × 10^5 CFU/ml, 16–18 h at 37°C, 96-well microplate, daptomycin with 1.25 mM calcium chloride, triplicate
[17] = text summary over two strains: S. aureus MSSA ATCC 25923 and S. aureus E48
[18] = repeated exposure at sub-MIC for 30 days

For `CC1(C)S[C@@H]2[C@H](NC(=O)[C@H](N)c3ccccc3)C(=O)N2[C@H]1C(=O)O` [Ampicillin], the “extension of survival time” value [1] was 2 to 4 days, the “survival rate of the mice” value [1, 14] was “all the mice were dead” and the “survival rate of the mice” value [1, 15] was 50%. It also gave an MIC [2] of 16 µg/mL (≈ 45.8 µM), an MIC ([3]; Staphylococcus aureus) of 8 µg/mL (≈ 22.9 µM) and an MIC [4, 16] of 0.25 µg/mL (≈ 0.715 µM). The MIC [4, 17] was 0.25 µg/mL (≈ 0.715 µM), the MIC ([5]; Staphylococcus aureus) was 0.25 µg/mL (≈ 0.715 µM) and the “MIC at pH 5.0 compared to pH 7.4 (increase)” value (“MIC … (increase)” below) [6] was “did not influence”. The “change of MIC in phagolysosomal proteinase environment” value (from here on “change of MIC”) [6] was “at least 4 fold” and the “Survival rate of S. aureus E48” value [7] was 83.21–100.31%.
In the case of `CCC[C@@H]1C[C@@H](C(=O)N[C@@H]([C@H]2O[C@H](SC)[C@H](O)[C@@H](O)[C@H]2O)[C@H](C)Cl)N(C)C1` [Clindamycin], the “MIC … (increase)” value [6] is reported as ≤ 8 fold, the “change of MIC” value [6] is reported as “at least 4 fold” and the “time to complete killing of S. aureus E48” value [7] is reported as ≤ 2 h.
In the case of `CCCCCCCCCC(=O)N[C@@H](Cc1c[nH]c2ccccc12)C(=O)N[C@H](CC(N)=O)C(=O)N[C@@H](CC(=O)O)C(=O)N[C@@H]1C(=O)NCC(=O)N[C@@H](CCCN)C(=O)N[C@@H](CC(=O)O)C(=O)N[C@H](C)C(=O)N[C@@H](CC(=O)O)C(=O)NCC(=O)N[C@H](CO)C(=O)N[C@@H]([C@H](C)CC(=O)O)C(=O)N[C@@H](CC(=O)c2ccccc2N)C(=O)O[C@@H]1C` [Daptomycin], the “survival rate of the mice” value [1, 14] is reported as 16.7%, the “survival rate of the mice” value [1, 15] is reported as 100% and the “MIC after 30-day serial passage” value [2, 18] is reported as 8 µg/mL (≈ 4.94 µM). For the same compound, the MIC ([3]; ATCC 43300) was 0.5 µg/mL (≈ 0.309 µM), the MIC [5] was 1 µg/mL (≈ 0.617 µM) and the “change of MIC” value [6] was “did not change”. For the same compound, the “reduction of intracellular S. aureus” value [8] was 89.74~98.53%, the “decrease of MIC under the addition of 1.25-mM CaCl2” value [9] was 8–16 fold and the “Survival rate of S. aureus E48” value [7] was 0–83.03%. The “time to complete killing of S. aureus E48” value [7] was ≤ 2 h, the “bacteria burdens of liver, lung and spleen compared with the untreated group” value [10] was “no obvious difference” and the “reduction of intracellular bacteria burden in the peritoneal fluid” value ([10]; mean ± SD, n = 6) was 0.66 ± 0.83 Log10 CFU/ml. For the same compound, the “reduction of total bacterial burden in the peritoneal fluid” value ([10]; mean ± SD, n = 6) was 1.79 ± 1.05 Log10 CFU/ml.
With `CC(=O)NC[C@H]1CN(c2ccc(N3CCOCC3)c(F)c2)C(=O)O1` [Linezolid] the “extension of survival time” value [1] was 2 to 4 days, the “survival rate of the mice” value [1, 14] was “all the mice were dead” and the lives extended ([1]; 20 mg/kg intravenous two times) was 2 to 6 days. The “survival rate of the mice” value [1, 15] was “did not improve the survival rate”, the MIC [2] was 2 µg/mL (≈ 5.93 µM) and the “increase in the MIC value after 30-day serial passage” value [2, 18] was 2 fold. The MIC ([3]; Staphylococcus aureus) was 2 µg/mL (≈ 5.93 µM), the MIC [4, 16] was 2 µg/mL (≈ 5.93 µM) and the MIC [4, 17] was 1 to 2 µg/mL (≈ 2.96 to 5.93 µM). The MIC ([5]; Staphylococcus aureus) was 1 µg/mL (≈ 2.96 µM), the “MIC … (increase)” value [6] was “did not influence” and the “change of MIC” value [6] was “did not change”. For the same compound, the “Survival rate of S. aureus E48” value [7] was 94.08–99.89%.
In the case of plectasin, the “S. aureus E48 killed” value ([11]; 2 × MIC, within 1 h) is given as “approximately 85.85%”, the “time to eliminate bacteria” value ([11]; 2 × MIC) is given as ≤ 2 h and the MIC ([11]; strain not given, compared with Table 2) is given as 4 µg/mL. For the same compound, the protein-binding degree [12] was 90%, the hydrophobicity [13] was −0.695 and the net charge [13] was “+1”.
